Values of other authors, collected in patent US20110091889A1, “CENTROSOME-ASSAY” (4SC AG, priority 2008, published 2011).

Target: T1, Eg5 (Homo sapiens, UniProt P52732)
T1 sequence (P52732 1-1056): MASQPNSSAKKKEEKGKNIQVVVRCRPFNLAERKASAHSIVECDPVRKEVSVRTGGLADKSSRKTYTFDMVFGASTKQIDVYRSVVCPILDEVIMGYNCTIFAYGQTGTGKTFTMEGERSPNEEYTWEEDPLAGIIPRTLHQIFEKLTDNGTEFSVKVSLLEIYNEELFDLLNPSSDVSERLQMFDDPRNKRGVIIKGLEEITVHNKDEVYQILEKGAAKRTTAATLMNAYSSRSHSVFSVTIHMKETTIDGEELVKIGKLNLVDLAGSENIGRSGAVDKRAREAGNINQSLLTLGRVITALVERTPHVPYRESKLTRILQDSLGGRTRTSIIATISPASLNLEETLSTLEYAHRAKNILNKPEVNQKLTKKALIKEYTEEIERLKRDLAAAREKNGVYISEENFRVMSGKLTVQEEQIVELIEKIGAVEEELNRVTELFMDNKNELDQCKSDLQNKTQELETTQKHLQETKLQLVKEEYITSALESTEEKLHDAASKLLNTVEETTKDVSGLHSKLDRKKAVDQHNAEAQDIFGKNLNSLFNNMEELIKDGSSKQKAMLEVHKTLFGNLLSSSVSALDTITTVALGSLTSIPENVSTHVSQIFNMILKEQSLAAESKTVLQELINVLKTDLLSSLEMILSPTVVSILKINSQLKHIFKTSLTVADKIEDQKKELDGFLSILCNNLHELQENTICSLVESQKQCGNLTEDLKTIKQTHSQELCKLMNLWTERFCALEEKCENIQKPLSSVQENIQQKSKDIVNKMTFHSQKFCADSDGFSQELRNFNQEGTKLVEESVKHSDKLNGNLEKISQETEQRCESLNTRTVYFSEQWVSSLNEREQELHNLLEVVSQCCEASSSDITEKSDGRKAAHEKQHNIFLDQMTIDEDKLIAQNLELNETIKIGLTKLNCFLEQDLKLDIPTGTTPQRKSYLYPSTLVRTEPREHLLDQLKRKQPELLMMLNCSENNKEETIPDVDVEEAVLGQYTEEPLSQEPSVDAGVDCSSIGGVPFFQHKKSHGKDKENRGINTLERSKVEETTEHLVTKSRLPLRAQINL
Conditions: as compared to the (R)-enantiomer; in vitro and in vivo

CCOC(=O)C1=C(C)NC(=S)N[C@H]1c1cccc(O)c1 [(S)-monastrol]
relative potency as inhibitor of Eg5 activity: more potent inhibitor of Eg5 activity
